From the supplement of paper PMC13380429

What was measured:
[1] = tested on: A549-ACE2 infected with SARS-CoV-2; assay: cell count relative to DMSO; higher = less toxic; settings: 24 h
A549-ACE2 [2] = assay: drug-induced phospholipidosis relative to tamoxifen; higher = more phospholipidosis
HepG2 [3] = assay: relative viability EC50 (midpoint between 100% and the lowest measured viability); higher = less toxic; settings: 72 h
Caco-2 [4] = assay: as above; settings: 72 h
U2OS [5] = assay: as above; settings: 72 h
Calu-3 [6] = assay: as above; settings: 72 h
HepG2 [7] = assay: cell viability relative to DMSO; higher = less toxic; settings: 72 h
Caco-2 [8] = assay: as above; settings: 72 h
U2OS [9] = assay: as above; settings: 72 h
Vero E6 [10] = assay: as above; settings: 72 h
Calu-3 [11] = assay: as above; settings: 72 h
A549-ACE2 [12] = assay: phospholipidosis EC50; higher = less potent phospholipidosis inducer
[13] = tested on: A549-ACE2 infected with SARS-CoV-2; assay: SARS-CoV-2 infection rate relative to DMSO; higher = more infection; settings: 24 h
HepG2 [14] = assay: drug sensitivity score (DSS) for viability; higher = more toxic; extreme values may be limits of the assay; settings: 72 h
Caco-2 [15] = assay: as above; settings: 72 h
U2OS [16] = assay: as above; settings: 72 h
Vero E6 [17] = assay: as above; settings: 72 h
Calu-3 [18] = assay: as above; settings: 72 h
[19] = tested on: A549-ACE2 infected with SARS-CoV-2; assay: morphology score (similarity to uninfected cells); higher = more like uninfected cells; settings: 24 h
Vero E6 [20] = assay: relative viability EC50 (midpoint between 100% and the lowest measured viability); higher = less toxic; settings: 72 h

Nc1ncnc2c1c(-c1cccc(OCc3ccccc3)c1)cn2C1CC(CN2CCCC2)C1 (stereo in doubt) [NVP-ADW742]
Settings | SARS-CoV-2 infection rate [%] | cell count [%] | cell viability [%] | morphology score | phospholipidosis EC50 [µM]
A549-ACE2 [12], 24 h | – | – | – | – | 5.36
A549-ACE2 [12], 72 h | – | – | – | – | 3.26
Caco-2 [8], 1 nM | – | – | 98.9 | – | –
Caco-2 [8], 10 nM | – | – | 96.1 | – | –
Caco-2 [8], 100 nM | – | – | 98.4 | – | –
Caco-2 [8], 1000 nM | – | – | 74.6 | – | –
Caco-2 [8], 10000 nM | – | – | 34.1 | – | –
Calu-3 [11], 1 nM | – | – | 99.2 | – | –
Calu-3 [11], 10 nM | – | – | 93.1 | – | –
Calu-3 [11], 100 nM | – | – | 107 | – | –
Calu-3 [11], 1000 nM | – | – | 102 | – | –
Calu-3 [11], 10000 nM | – | – | 44.2 | – | –
HepG2 [7], 1 nM | – | – | 89.3 | – | –
HepG2 [7], 10 nM | – | – | 97.4 | – | –
HepG2 [7], 100 nM | – | – | 101 | – | –
HepG2 [7], 1000 nM | – | – | 69.9 | – | –
HepG2 [7], 10000 nM | – | – | 23.2 | – | –
U2OS [9], 1 nM | – | – | 99.1 | – | –
U2OS [9], 10 nM | – | – | 98 | – | –
U2OS [9], 100 nM | – | – | 99 | – | –
U2OS [9], 1000 nM | – | – | 88.9 | – | –
U2OS [9], 10000 nM | – | – | 43.7 | – | –
Vero E6 [10], 1 nM | – | – | 99.9 | – | –
Vero E6 [10], 10 nM | – | – | 95.6 | – | –
Vero E6 [10], 100 nM | – | – | 97.6 | – | –
Vero E6 [10], 1000 nM | – | – | 98.1 | – | –
Vero E6 [10], 10000 nM | – | – | 58.2 | – | –
[1], 0.1 µM | – | 104 | – | – | –
[1], 0.3 µM | – | 93 | – | – | –
[1], 1 µM | – | 82 | – | – | –
[1], 3 µM | – | 101 | – | – | –
[13], 0.1 µM | 98 | – | – | – | –
[13], 0.3 µM | 94 | – | – | – | –
[13], 1 µM | 75 | – | – | – | –
[13], 3 µM | 30 | – | – | – | –
[19], 0.1 µM | – | – | – | 0.14 | –
[19], 0.3 µM | – | – | – | 0.2 | –
[19], 1 µM | – | – | – | 0.46 | –
[19], 3 µM | – | – | – | 0.75 | –

drug-induced phospholipidosis [%], A549-ACE2 [2]
Settings | 0.3 µM | 0.833333 µM | 3.33333 µM | 6.66667 µM | 10 µM | 30 µM
24 h | 8.61 | 13.3 | 31.4 | 113 | 145 | 158
48 h | 8.35 | 9.24 | 33.7 | 54.9 | – | –
72 h | 7.79 | 5.46 | 31.5 | 52.2 | – | –

Settings | drug sensitivity score | relative viability EC50
Caco-2 [4] | – | 1230 nM
Caco-2 [15] | 7 | –
Calu-3 [6] | – | 3.32 µM
Calu-3 [18] | 2.9 | –
HepG2 [3] | – | 1190 nM
HepG2 [14] | 8.3 | –
U2OS [5] | – | 1750 nM
U2OS [16] | 4.9 | –
Vero E6 [17] | 2.4 | –

O=C(c1ccc(Nc2nccc(-c3cc4ccccc4s3)n2)cc1)N1CCC(N2CCCC2)CC1 [IKK-16]
Settings | SARS-CoV-2 infection rate [%] | cell count [%] | cell viability [%] | morphology score | phospholipidosis EC50 [µM]
A549-ACE2 [12], 24 h | – | – | – | – | 1.05
A549-ACE2 [12], 48 h | – | – | – | – | 1.53
A549-ACE2 [12], 72 h | – | – | – | – | 1.1
Caco-2 [8], 1 nM | – | – | 97.6 | – | –
Caco-2 [8], 10 nM | – | – | 102 | – | –
Caco-2 [8], 100 nM | – | – | 98.9 | – | –
Caco-2 [8], 1000 nM | – | – | 79.8 | – | –
Caco-2 [8], 10000 nM | – | – | 9.4 | – | –
HepG2 [7], 1 nM | – | – | 95.9 | – | –
HepG2 [7], 10 nM | – | – | 108 | – | –
HepG2 [7], 100 nM | – | – | 91.6 | – | –
HepG2 [7], 1000 nM | – | – | 86.9 | – | –
HepG2 [7], 10000 nM | – | – | -0.2 | – | –
U2OS [9], 1 nM | – | – | 97.4 | – | –
U2OS [9], 10 nM | – | – | 95.5 | – | –
U2OS [9], 100 nM | – | – | 97.6 | – | –
U2OS [9], 1000 nM | – | – | 91.7 | – | –
U2OS [9], 10000 nM | – | – | 0.8 | – | –
Vero E6 [10], 1 nM | – | – | 97.4 | – | –
Vero E6 [10], 10 nM | – | – | 99.5 | – | –
Vero E6 [10], 100 nM | – | – | 99.5 | – | –
Vero E6 [10], 1000 nM | – | – | 97.6 | – | –
Vero E6 [10], 10000 nM | – | – | -0.2 | – | –
[1], 0.1 µM | – | 102 | – | – | –
[1], 0.3 µM | – | 93 | – | – | –
[1], 1 µM | – | 111 | – | – | –
[1], 3 µM | – | 109 | – | – | –
[13], 0.1 µM | 101 | – | – | – | –
[13], 0.3 µM | 104 | – | – | – | –
[13], 1 µM | 62 | – | – | – | –
[13], 3 µM | 19 | – | – | – | –
[19], 0.1 µM | – | – | – | -0.12 | –
[19], 0.3 µM | – | – | – | -0.2 | –
[19], 1 µM | – | – | – | 0.57 | –
[19], 3 µM | – | – | – | 0.49 | –

drug-induced phospholipidosis [%], A549-ACE2 [2]
Settings | 0.3 µM | 0.833333 µM | 3.33333 µM | 6.66667 µM | 10 µM | 30 µM
24 h | -2.91 | 8.17 | 163 | 140 | 179 | 55.6
48 h | -0.02 | 5.69 | 114 | 107 | 125 | –
72 h | 0.998 | 5.79 | 108 | 91.2 | – | –

Settings | drug sensitivity score | relative viability EC50 [nM]
Caco-2 [4] | – | 1640
Caco-2 [15] | 8.2 | –
HepG2 [3] | – | 2100
HepG2 [14] | 7.7 | –
U2OS [5] | – | 2480
U2OS [16] | 6.8 | –
Vero E6 [17] | 5.9 | –
Vero E6 [20] | – | 2980

Clc1ccc2c(c1)N=C(N1CCNCC1)c1ccccc1N2 [desmethylclozapine]
Settings | SARS-CoV-2 infection rate [%] | cell count [%] | cell viability [%] | morphology score | phospholipidosis EC50 [µM]
A549-ACE2 [12], 24 h | – | – | – | – | 6.54
A549-ACE2 [12], 48 h | – | – | – | – | 6.43
A549-ACE2 [12], 72 h | – | – | – | – | 8.34
Caco-2 [8], 1 nM | – | – | 88 | – | –
Caco-2 [8], 10 nM | – | – | 94.2 | – | –
Caco-2 [8], 100 nM | – | – | 92.9 | – | –
Caco-2 [8], 1000 nM | – | – | 98.5 | – | –
Caco-2 [8], 10000 nM | – | – | 99.1 | – | –
Calu-3 [11], 1 nM | – | – | 104 | – | –
Calu-3 [11], 10 nM | – | – | 114 | – | –
Calu-3 [11], 100 nM | – | – | 104 | – | –
Calu-3 [11], 1000 nM | – | – | 116 | – | –
Calu-3 [11], 10000 nM | – | – | 91.8 | – | –
HepG2 [7], 1 nM | – | – | 97.3 | – | –
HepG2 [7], 10 nM | – | – | 105 | – | –
HepG2 [7], 100 nM | – | – | 96.8 | – | –
HepG2 [7], 1000 nM | – | – | 104 | – | –
HepG2 [7], 10000 nM | – | – | 87.7 | – | –
U2OS [9], 1 nM | – | – | 106 | – | –
U2OS [9], 10 nM | – | – | 103 | – | –
U2OS [9], 100 nM | – | – | 100 | – | –
U2OS [9], 1000 nM | – | – | 102 | – | –
U2OS [9], 10000 nM | – | – | 97.6 | – | –
Vero E6 [10], 1 nM | – | – | 103 | – | –
Vero E6 [10], 10 nM | – | – | 107 | – | –
Vero E6 [10], 100 nM | – | – | 94.2 | – | –
Vero E6 [10], 1000 nM | – | – | 102 | – | –
Vero E6 [10], 10000 nM | – | – | 93 | – | –
[1], 0.3 µM | – | 100 | – | – | –
[1], 3 µM | – | 112 | – | – | –
[1], 10 µM | – | 115 | – | – | –
[1], 30 µM | – | 121 | – | – | –
[13], 0.3 µM | 96 | – | – | – | –
[13], 3 µM | 62 | – | – | – | –
[13], 10 µM | 28 | – | – | – | –
[13], 30 µM | 13 | – | – | – | –
[19], 0.3 µM | – | – | – | 0.09 | –
[19], 3 µM | – | – | – | 0.63 | –
[19], 10 µM | – | – | – | 0.76 | –
[19], 30 µM | – | – | – | 0.73 | –

drug-induced phospholipidosis [%], A549-ACE2 [2]
Settings | 0.3 µM | 0.833333 µM | 3.33333 µM | 6.66667 µM | 10 µM | 30 µM
24 h | 3.47 | 2.91 | 27 | 53.9 | 65.2 | 91.3
48 h | 4.09 | 3.86 | 21.2 | 55.4 | 70.7 | 95.8
72 h | 4.5 | 2.24 | 18.3 | 49.2 | 76.1 | 116

Settings | drug sensitivity score | relative viability EC50
Caco-2 [4] | – | > 10000 nM
Caco-2 [15] | 0 | –
Calu-3 [6] | – | > 10 µM
Calu-3 [18] | 0 | –
HepG2 [3] | – | > 10000 nM
HepG2 [14] | 0 | –
U2OS [5] | – | > 10000 nM
U2OS [16] | 0 | –
Vero E6 [17] | 0 | –
Vero E6 [20] | – | > 10000 nM
